Consider five compounds from PubChem BioAssay (NCI).

Molecules are shown by their SMILES. Where “and” joins values, the source holds several entries; their conditions need not be identical. Equal values may be shown once.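 A five-concentration, 48-hour dose response in 96-well plates underlies each endpoint, interpolated linearly between surrounding concentrations. At the GI50, growth is halved. TGI is the concentration that stops growth completely.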

Among the test systems are OVCAR-3 ovarian; SK-OV-3 ovarian; UACC-62 melanoma; SNB-19 CNS; CAKI-1 renal; SW-620 colon; T-47D breast; NCI-H460 lung; IGROV1 ovarian; HCC-2998 colon.
What all share (test): DTP human tumour cell line panel, 48 h

`COc1cc(N2CCN(C(C)C)CC2)ccc1Nc1nc(Nc2ccc(F)cc2C(N)=O)c2cc[nH]c2n1`: the GI50 is 3.08 µM in the assay on OVCAR-3 ovarian; 0.317 µM with SK-OV-3 ovarian; 2.53 µM with UACC-62 melanoma; 3.98 µM in the assay on SNB-19 CNS; 0.911 µM with CAKI-1 renal; 0.0905 µM in the assay on SW-620 colon. Further, the GI50 with T-47D breast is 3.49 µM; in the assay with NCI-H460 lung it was 0.0985 µM; in the assay with IGROV1 ovarian, 0.392 µM; in the assay on HCC-2998 colon it was 0.558 µM. Moreover, the TGI is 6.43 µM with OVCAR-3 ovarian; 3.03 µM in the assay with SK-OV-3 ovarian; 6.42 µM in the assay on UACC-62 melanoma; 11.4 µM with SNB-19 CNS; 5.29 µM with CAKI-1 renal; 4.17 µM with SW-620 colon. Moreover, the TGI in the assay with T-47D breast came out at 8.2 µM; in the assay on NCI-H460 lung, 3.72 µM; with IGROV1 ovarian, 6.94 µM; in the assay with HCC-2998 colon it was 5.63 µM.
Regarding `O=C(Nc1c(Cl)cccc1Cl)Oc1cccc2cccnc12`, the GI50 is 3.64 µM in the assay on OVCAR-3 ovarian; 4.62 µM in the assay on SK-OV-3 ovarian; 3.04 µM in the assay on UACC-62 melanoma; 5.74 µM in the assay on SNB-19 CNS; 3.19 µM in the assay with CAKI-1 renal; 4.23 µM with SW-620 colon. Also, the GI50 in the assay on T-47D breast is 3.29 µM; in the assay with NCI-H460 lung it was 3.46 µM; with IGROV1 ovarian, 3.68 µM; with HCC-2998 colon it was 5.82 µM. Moreover, the concentration for total growth inhibition (TGI) was more than 100 µM with OVCAR-3 ovarian; 39.4 µM in the assay on SK-OV-3 ovarian; 10 µM with UACC-62 melanoma; more than 100 µM in the assay with SNB-19 CNS; 24.4 µM with CAKI-1 renal; more than 100 µM in the assay with SW-620 colon. Further, the TGI is 14.5 µM with T-47D breast, 20.2 µM in the assay on NCI-H460 lung, more than 100 µM in the assay on IGROV1 ovarian and 24.6 µM in the assay on HCC-2998 colon.
`Cn1cc(-c2[nH]c3cc(NC(=O)[C@H](N)C4CCCCC4)cc4c3c2C=NNC4=O)cn1`: the GI50 in the assay with OVCAR-3 ovarian is 0.229 µM and 0.144 µM; with SK-OV-3 ovarian, 0.302 µM and 0.309 µM; with UACC-62 melanoma, 0.484 µM and 0.704 µM; in the assay on SNB-19 CNS, 0.65 µM and 0.47 µM; with CAKI-1 renal it was 1.8 µM and 0.705 µM; with SW-620 colon, 0.53 µM and 0.829 µM. Besides, the GI50 is 15 µM in the assay with T-47D breast; 4.11 µM and 3.59 µM in the assay on NCI-H460 lung; 0.603 µM and 0.367 µM with IGROV1 ovarian; 0.472 µM and 0.287 µM in the assay on HCC-2998 colon. Also, the TGI with OVCAR-3 ovarian was 3.02 µM and 3.73 µM; in the assay with SK-OV-3 ovarian it was 11.4 µM and > 10 µM; in the assay with UACC-62 melanoma, 18.7 µM and > 10 µM; in the assay with SNB-19 CNS it was 19.7 µM and > 10 µM; in the assay with CAKI-1 renal, 10.5 µM and > 7.91 µM; in the assay on SW-620 colon, 13.6 µM and > 10 µM. Further, the total growth inhibition concentration (TGI) with T-47D breast was 31.3 µM; in the assay on NCI-H460 lung it was 19.9 µM and > 10 µM; in the assay with IGROV1 ovarian, 14.3 µM and > 10 µM; in the assay on HCC-2998 colon, 19.9 µM and > 10 µM.
For `CC1(/C=C/c2ccc(-c3ccccc3)cc2)CCn2cnc3ncnc(c32)N1O` (stereo not given), the GI50 in the assay on OVCAR-3 ovarian was 0.425 µM; with SK-OV-3 ovarian, 0.434 µM; in the assay with UACC-62 melanoma it was 0.356 µM; with SNB-19 CNS it was 0.526 µM; in the assay on CAKI-1 renal it was 0.327 µM; in the assay on SW-620 colon, 0.529 µM. Further, the GI50 in the assay on T-47D breast was 0.462 µM; in the assay on NCI-H460 lung it was 0.264 µM; in the assay on IGROV1 ovarian, 0.337 µM; in the assay with HCC-2998 colon, 0.409 µM. The TGI was 20.7 µM in the assay with OVCAR-3 ovarian; 20.4 µM with SK-OV-3 ovarian; 2.27 µM with UACC-62 melanoma; more than 72.6 µM in the assay with SNB-19 CNS; 12.2 µM in the assay with CAKI-1 renal; 24.6 µM with SW-620 colon. The concentration for total growth inhibition (TGI) came out at 54.3 µM in the assay on T-47D breast, 8.25 µM in the assay with NCI-H460 lung, 14.1 µM in the assay on IGROV1 ovarian and 34.6 µM in the assay with HCC-2998 colon.
Take `Nc1cc2c3ccccc3ccc2c2ccccc12`: the GI50 is more than 67 µM in the assay with OVCAR-3 ovarian; more than 100 µM with SK-OV-3 ovarian; more than 100 µM with UACC-62 melanoma; more than 100 µM in the assay on SNB-19 CNS; more than 100 µM in the assay with CAKI-1 renal; more than 100 µM with SW-620 colon. The GI50 in the assay with T-47D breast was more than 38.1 µM; in the assay with NCI-H460 lung it was 7.63 µM; in the assay on IGROV1 ovarian, more than 100 µM; in the assay with HCC-2998 colon it was more than 100 µM. In addition, the TGI in the assay on OVCAR-3 ovarian, with SK-OV-3 ovarian, in the assay on UACC-62 melanoma, with SNB-19 CNS, in the assay with CAKI-1 renal and in the assay on SW-620 colon was more than 100 µM throughout. Moreover, the TGI with T-47D breast, in the assay on NCI-H460 lung, with IGROV1 ovarian and in the assay with HCC-2998 colon was more than 100 µM each time.

What is called GI50 is the concentration giving 50% growth inhibition. One may read the TGI as the concentration giving total growth inhibition. A higher TGI goes with lower sensitivity of the cells.
